According to paper PMC9633586 (Biochemistry, 2022):

Target: Cj1438 (Campylobacter jejuni, UniProt Q0P8H6)
Experiment: […] NMR, formation of S-11
Assay type: biochemical
Conditions: 20 mM MgCl2, 10 mM ATP, 10 mM D-glucuronate, 50 mM HEPES/K+ pH 8.0, 25 °C

Compound: N[C@@H](CO)COP(=O)(O)O [S-4, S-serinol phosphate]
- 31P NMR, formation of S-11: Cj1438 catalyzes the formation of compound S-11 using D-glucuronate, MgATP, and S-serinol phosphate (S-4).
